Legend:
Assay type in all cases: functional
[1] = tested on: Mus musculus; test: Surviving fraction of compound on BALB/c mice bearing well established intradermal EMT6 solid tumors was measured by intraperitoneal injection on treatment with X-ray alone.
[2] = tested on: Mus musculus; test: Surviving fraction of compound on BALB/c mice bearing well established intradermal EMT6 solid tumors was measured by intraperitoneal injection on treatment with drug alone.
[3] = tested on: Mus musculus; test: Surviving fraction of compound on BALB/c mice bearing well established intradermal EMT6 solid tumors was measured by intraperitoneal injection without any treatment.
[4] = tested on: Mus musculus; test: Surviving fraction of compound on BALB/c mice bearing well established intradermal EMT6 solid tumors was measured by intraperitoneal injection on treatment with drug and X-ray.
[5] = tested on: Mus musculus; test: Surviving fraction of compound on BALB/c mice bearing well established intradermal EMT6 solid tumors was measured by intraperitoneal injection on treatment with X-ray.
[6] = tested on: Mus musculus; test: Surviving fraction of compound on BALB/c mice bearing well established intradermal EMT6 solid tumors was measured by intraperitoneal injection on treatment with drug.

Q: With `COc1cc(COC(=O)N(N(CCCl)S(C)(=O)=O)S(C)(=O)=O)c([N+](=O)[O-])cc1OC` as the compound, how does the Surviving fraction [1] read?
A: Its Surviving fraction is 0.043.

Q: And the Surviving fraction [2]?
A: The Surviving fraction was 0.856.

Q: And the Surviving fraction [3]?
A: The Surviving fraction was 1.

Q: What about the Surviving fraction [4] of the same compound?
A: Its Surviving fraction is 0.024.

Q: For `CS(=O)(=O)N(CCCl)N(C(=O)OCc1ccc([N+](=O)[O-])cc1)S(C)(=O)=O`, which Surviving fraction [5] is on record?
A: Its Surviving fraction is 0.043.

Q: What about the Surviving fraction [3] of the same compound?
A: Its Surviving fraction is 1.

Q: And the Surviving fraction [4]?
A: The Surviving fraction was 0.013.

Q: What about the Surviving fraction [6] of the same compound?
A: Its Surviving fraction is 0.841.

— ChEMBL document CHEMBL1132604, “Hypoxia-selective nitrobenzyloxycarbonyl derivatives of 1,2-bis(methylsulfonyl)-1-(2-chloroethyl)hydrazines” (1999)
